Tests used:
[1] = tested on: ovulation; details: daily dose; cited from earlier work
[2] = design: species or system women; details: in vivo
Excerpt: (§1) 128 patients were randomly assigned to the LA group and 124 patients to the DNG group. The efficacy of the therapy was examined, among other ways, with the aid of a pain scale (Visual Analog Scale, VAS) questionnaire that was filled out by the patient.

[3] = tested on: persons affected with endometriosis; details: 2 mg of dienogest daily for 24 weeks; cited from earlier work
[4] = tested on: women with laparoscopically diagnosed endometriosis; assay: Clinical study in endometriosis: pain scale (Visual Analog Scale, VAS) questionnaire; format: in vivo; details: 6 months; for reduction in pain (VAS) at the end of the treatment compared to the beginning of the study: DNG 2 mg/day orally, LA 3.75 mg s.c. every 4 weeks
Excerpt: as §1

Compound	ovulation-inhibiting dose [1] [mg]	drop in bone density [2]	result of the treatment of endometriosis [3]	statistical analysis of pain reduction versus LA ([4]; DNG 2 mg/day orally vs LA 3.75 mg s.c. every 4 weeks)	reduction in pain (VAS) at the end of the treatment compared to the beginning of the study [4] [mm]
CC(=O)O[C@]1(C(C)=O)CC[C@H]2[C@@H]3C=C(Cl)C4=CC(=O)CC[C@]4(C)[C@H]3CC[C@@]21C [chlormadinone acetate]	1.7	–	–	–	–
C[C@]12CCC3=C4CCC(=O)C=C4CC[C@H]3[C@@H]1CC[C@@]2(O)CC#N [dienogest, 17α-cyano-methyl-17-β-hydroxy-estra-4,9-dien-3-one]	–	no reduction in bone density	comparable to that with Danazol or with a GnRH agonist	not inferior to LA	−47.5
CCNC(=O)[C@@H]1CCCN1C(=O)[C@H](CCCNC(=N)N)NC(=O)[C@H](CC(C)C)NC(=O)[C@@H](CC(C)C)NC(=O)[C@H](Cc1ccc(O)cc1)NC(=O)[C@H](CO)NC(=O)[C@H](Cc1c[nH]c2ccccc12)NC(=O)[C@H](Cc1c[nH]cn1)NC(=O)[C@@H]1CCC(=O)N1 [LA, leuprorelin acetate]	–	4%	–	–	−46.0
CC(=O)O[C@]1(C(C)=O)CC[C@H]2[C@@H]3C=C(Cl)C4=CC(=O)[C@@H]5C[C@@H]5[C@]4(C)[C@H]3CC[C@@]21C [cyproterone acetate]	1	–	–	–	–

Reference: patent publication US20090060997A1, “PROCESS FOR PRODUCING A PHARMACEUTICAL PREPARATION FOR THERAPEUTIC TREATMENT OF ENDOMETRIOSIS CONTAINING A COMBINATION OF A GESTAGEN AND (6S)-5-METHYLTETRAHYDROFOLATE” (priority 2007, published 2009)
